Laboratory results published in US20250059140A1, “C19 D[…], AND PREPARATION METHOD AND APPLICATION THEREOF” (SOUTHWEST JIAOTONG UNIVERSITY, priority 2022, published 2025).
Entries after “also recorded” stand apart in the source; their conditions may differ. Where two headings read alike, the source gives them in different places.

Experiments:
RyR2 = experiment: qPCR transcriptional level of RyR2 in CoCl2-hypoxic H9c2 cells; assay type: cell-based; conditions: CoCl2-induced hypoxia in H9c2 cells, FIG. 2C
Protocol: (§1) FIGS. 2B-F show transcriptional level results (detected by q-PCR) of calcium channel-related indicators in cardiomyocytes, where 2B: DHPR; 2C: RyR2; 2D: SERCA2a; 2E: NCX; and 2F: NHE.
(§2) In FIGS. 2A-F, the detection is performed in triplicate; ##P<0.01, ###P<0.001, and ####P<0.0001, indicating the significant difference from the control group; and *P<0.05, **P<0.01, ***P<0.001, and ****P<0.0001, indicating the significant difference from the CoCl2 group.
(§3) When cells experienced hypoxic injury, a large amount of reactive oxygen species (ROS) was released. DCFH-DA probe was used to label ROS in H9c2 cells, and 900 μM CoCl2 and different concentrations of cammconine (12.5, 25, 50 PM) were administered to detect the changes in ROS by flow cytometry and fluorescence inverted microscopy. […] Changes in ATPase activity after treating the cells with myocardial hypoxia with cammaconine were detected by a kit. […] Changes in the transcriptional level of the cardiomyocyte hypoxia key indicator HIF-1α and calcium cycle-related indicators were detected by qPCR.

isolated bullfrog hearts = experiment: Cardiotonic effect on isolated bullfrog hearts in vitro; conditions: for Cardiotonic effect compared with the positive control: 0.005 mol/L versus positive control at 0.01 mol/L; for activation at 5000 µM: isolated bullfrog heart, tested concentration 0.005 mol/L; for Average increase rate (%) (average amplitude growth rate of the frog heart) / Results (class of heart-strengthening effect): positive control
Protocol: The preparation of in vitro isolated bullfrog heart was carried out according to the method recorded in the literature (Ding Hong, Experimental Pharmacology, pp. 504-506, Science Publishing House, 2008) as follows. Bullfrogs weighing 150-200 g, male and female, were used herein. At room temperature, the brain and spinal cord of the bullfrogs was destroyed with a metal probe, and then the chest wall of the bullfrogs was incised to expose the heart and the right aorta and the left aorta were each threaded with a wire. The right aorta was knotted directly, and the left aorta was cut with scissors in a “V” shaped incision. A frog heart cannula containing a small amount of Ringer's solution was inserted into the ventricle. The wire of the left aorta was attached and secured to the lateral hook of the cannula. The blood in the heart tube of the bullfrogs was repeatedly flushed with fresh Ringer's solution until the fluid was clear and colorless. The heart cannula was inserted into the ventricle and perfused with Ringer's solution. The bullfrog heart cannula was fixed on the iron stand with a clamp. The muscle tension transducer was fixedly arranged under the bullfrog heart cannula, and the isolated bullfrog heart was connected to the muscle tension transducer via a bullfrog heart clip and a wire. The volume of solution in the cannula was adjusted by 1.0 mL and the subject compound or an equivalent volume of a solvent was added to the cannula. The subject compound was evaluated for cardiac activity on isolated perfused frog hearts, and heart rate and contraction amplitude were recorded.
The cardiotonic effects of compounds 1-10 provided in the present disclosure on isolated bullfrog hearts in vitro were investigated, with deacetylmaurolidine and mesaconitine as positive controls.
The tested concentration of compounds 1-10 was 0.005 mol/L, and the tested concentrations of the positive controls, i.e., mesaconitine and deacetylmaurolidine, were 0.01 mol/L and 0.0002 mol/L, respectively.

[1] = test system: reactive oxygen species (ROS) in H9c2 cells; experiment: ROS detection with DCFH-DA probe in CoCl2-hypoxic H9c2 cells; assay type: cell-based; conditions: 12.5, 25, 50 PM; 900 μM CoCl2; flow cytometry and fluorescence microscopy
Protocol: FIGS. 1D-I show fluorescence detection results of reactive oxygen species (ROS) of different groups of H9c2 cells (scale bar: 20 μm), where 1D: control group; 1E: CoCl2 group; 1F: 50 μM-Trimetazidine group; 1G: 12.5 μM-Cammaconine group; 1H: 25 μM-Cammaconine group; and 11:50 μM-Cammaconine group;
as §3

NHE = experiment: qPCR transcriptional level of NHE in CoCl2-hypoxic H9c2 cells; assay type: cell-based; conditions: CoCl2-induced hypoxia in H9c2 cells, FIG. 2F
Protocol: as §1, §2, §3

HIF-1α = experiment: qPCR transcriptional level of HIF-1α in CoCl2-hypoxic H9c2 cells; assay type: cell-based; conditions: CoCl2-induced hypoxia in H9c2 cells, FIG. 2A
Protocol: as §2, §3

NCX = experiment: qPCR transcriptional level of NCX in CoCl2-hypoxic H9c2 cells; assay type: cell-based; conditions: CoCl2-induced hypoxia in H9c2 cells, FIG. 2E
Protocol: as §1, §2, §3

Na+/K+-ATPase = Na+/K+-ATPase activity in hypoxic cardiomyocytes (kit); assay type: cell-based; conditions: concentration of 25 mol/L; CoCl2-induced hypoxia in H9c2 cells
Protocol: (§4) FIGS. 1B-C show an effect of the compound 1 on the Na^+/K^+-ATPase specific activity and Ca^2+/Mg^2+-ATPase activity of the hypoxic cardiomyocytes, where the test is performed in triplicate; ##P<0.01, ###P<0.001, and ####P<0.0001, indicating the significant difference from the control group; and *P<0.05, **P<0.01, ***P<0.001, and ****P<0.0001, indicating the significant difference from the CoCl2 group;
as §3

DHPR = experiment: qPCR transcriptional level of DHPR in CoCl2-hypoxic H9c2 cells; assay type: cell-based; conditions: CoCl2-induced hypoxia in H9c2 cells, FIG. 2B
Protocol: as §1, §2, §3

H9c2 cells = experiment: H9c2 cell viability by MTT assay, CoCl2-induced myocardial hypoxia; assay type: cell-based; conditions: concentration of 6.25-50 M, FIG. 1A
Ca2+/Mg2+-ATPase = Ca2+/Mg2+-ATPase activity in hypoxic cardiomyocytes (kit); assay type: cell-based; conditions: concentration of 25 mol/L; CoCl2-induced hypoxia in H9c2 cells
Protocol: as §4, §3

SERCA2a = experiment: qPCR transcriptional level of SERCA2a in CoCl2-hypoxic H9c2 cells; assay type: cell-based; conditions: CoCl2-induced hypoxia in H9c2 cells, FIG. 2D
Protocol: as §1, §2, §3

[2] = read-out: Average increase rate (%) (average amplitude growth rate of the frog heart)
[3] = read-out: Results (class of heart-strengthening effect)
[4] = tested concentration 0.01 mol/L
[5] = tested concentration 0.0002 mol/L

Molecule | Cardiotonic effect compared with the positive control (isolated bullfrog hearts) | activation at 5000 µM (isolated bullfrog hearts; [2]) [%] | activation at 5000 µM (isolated bullfrog hearts; [3]) [%] | further results
CCN1C[C@]2(CO)CC[C@H](OC)[C@@]34C5C[C@@H]6[C@@H](OC)C[C@@](O)(C5[C@H]6O)C(CC23)[C@@H]14 (stereo partly drawn) [Compound 1, cammaconine] | better cardiotonic effect; also recorded: significantly enhanced | 118 | > 60 | mRNA level of RyR2 (RyR2): decreased; Levels of ROS in H9c2 cells [1]: significantly reduced; mRNA level of NHE (NHE): decreased; mRNA transcriptional level of HIF-1α (HIF-1α): decreased; mRNA level of NCX (NCX): decreased; Na+/K+-ATPase activity (Na+/K+-ATPase): increase the enzyme activity; mRNA level of DHPR (DHPR): decreased; Cardioprotective effect on H9c2 cells (cell viability, MTT) (H9c2 cells): certain cardioprotective effects; Ca2+/Mg2+-ATPase activity (Ca2+/Mg2+-ATPase): increase the enzyme activity; mRNA level of SERCA2a (SERCA2a): decreased
CO[C@H]1C[C@@]2(O)C3C(C[C@H]1[C@@H]3O)[C@]13C4CC2[C@H]1N(C)C[C@]4(CO)CC[C@@H]3OC (stereo partly drawn) [Compound 2, N-deethyl-N-methyl cammaconine] | better cardiotonic effect; also recorded: significantly enhanced | 159 | > 60 | 
CO[C@H]1C[C@@]2(O)C3C(C[C@H]1[C@@H]3O)[C@]13C4CC2[C@H]1NC[C@]4(CO)CC[C@@H]3OC (stereo partly drawn) [Compound 3, N-deethyl cammaconine] |  | 36.8 | 31 to 60 | 
CCN1C[C@]2(CO)CC[C@H](OC)[C@@]34C5C[C@@H]6[C@@H](OC)C[C@@](O)(C5[C@H]6OC)C(CC23)[C@@H]14 (stereo partly drawn) [Compound 4, scaconine] | better cardiotonic effect; also recorded: significantly enhanced | 156 | > 60 | 
CCN1C[C@]2(CO)CC[C@H](OC)[C@@]34C5C[C@@H]6[C@@H](OC)C[C@@](OC)(C5[C@H]6O)C(CC23)[C@@H]14 (stereo partly drawn) [Compound 5, 8-O-methyl cammaconine] |  | 33.6 | 31 to 60 | 
CCN1C[C@]2(CO)CC[C@H](OC)[C@@]34C5C[C@@H]6[C@@H](OC)C[C@@](OC)(C5[C@H]6OC)C(CC23)[C@@H]14 (stereo partly drawn) [Compound 6, 8,14-O-dimethyl cammaconine] |  | 31.2 | 31 to 60 | 
CCN1C[C@]2(CO)CC[C@H](OC)[C@@]34C5C[C@H]6[C@H](O)C5[C@](O)(C[C@@H]6O)C(CC23)[C@@H]14 (stereo partly drawn) [Compound 7, 16-demethyl cammaconine] | better cardiotonic effect; also recorded: significantly enhanced | 75.2 | > 60 | 
CCO[C@]12C[C@H](OC)[C@H]3CC(C1[C@H]3O)[C@]13C4CC2[C@H]1N(CC)C[C@]4(CO)CC[C@@H]3OC (stereo partly drawn) [Compound 8, 8-O-ethyl cammaconine] |  | 57.2 | 31 to 60 | 
CCO[C@]12C[C@H](OC)[C@H]3CC(C1[C@H]3OC)[C@]13C4CC2[C@H]1N(CC)C[C@]4(CO)CC[C@@H]3OC (stereo partly drawn) [Compound 9, 8-O-ethyl, 14-O-methyl cammaconine] |  | 21.8 | 16 to 30 | 
CO[C@H]1C[C@@]2(O)C3C(C[C@H]1[C@@H]3OC)[C@]13C4CC2[C@H]1N(C)C[C@]4(CO)CC[C@@H]3OC (stereo partly drawn) [Compound 10, N-deethyl-N-methyl 14-O-methyl cammaconine] | better cardiotonic effect; also recorded: significantly enhanced | 148 | > 60 | 
COC[C@]12CN(C)[C@@H]3[C@@H]4[C@H](OC)[C@H]1[C@@]3([C@@H](OC)C[C@H]2O)[C@@H]1C[C@@]2(O)[C@H](OC(=O)c3ccccc3)[C@@H]1[C@]4(OC(C)=O)[C@@H](O)[C@@H]2OC [Mesaconitine, mesaconitine, reference compound] |  |  |  | Average increase rate (%) (average amplitude growth rate of the frog heart) (isolated bullfrog hearts; [4]): 70.7%; Results (class of heart-strengthening effect) (isolated bullfrog hearts; [4]): Strong (>60% (+++, strong))
deacetylmaurolidine [reference compound] |  |  |  | Average increase rate (%) (average amplitude growth rate of the frog heart) (isolated bullfrog hearts; [5]): 61%; Results (class of heart-strengthening effect) (isolated bullfrog hearts; [5]): Strong (>60% (+++, strong))
